Measured values as given in PubChem BioAssay AID1919004 (Molecular Pharmacology Branch, DTP, NCI, 2023).
Where “and” joins values, the source holds several entries; their conditions need not be identical. Identical values can stand only once. Blank lines part the entries; values can stand above or below the molecule they belong to.

System: 883617-216-R-J1-PDC complex spheroids, growth, % test/control
Assay: Anticancer human tumor 883617-216-R-J1-PDC patient-derived bladder carcinoma cell line growth inhibition [AhR]
Details: for viability, T/C: stronger effect = lower value
Outline: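 Complex tumor spheroids co-cultured with HUVEC and human MSC stroma; AhR antagonists tested in combination with standard-of-care and investigational agents. Top concentration at or near clinical Cmax (else 10 microM), half-log dilutions; growth expressed as percent test/control.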

[1] = curve of first compound, second compound 0.1 µM
[2] = curve of first compound, second compound 0.316 µM
[3] = curve of first compound, second compound 1 µM
[4] = curve of first compound, second compound 3.16 µM
[5] = curve of first compound, second compound 10 µM
[6] = second compound 0.1 µM, first compound 0.0316 µM
[7] = second compound 0.1 µM, first compound 0.1 µM
[8] = second compound 0.316 µM, first compound 0.0316 µM
[9] = second compound 0.316 µM, first compound 0.1 µM
[10] = second compound 1 µM, first compound 0.0316 µM
[11] = second compound 1 µM, first compound 0.1 µM
[12] = second compound 3.16 µM, first compound 0.0316 µM
[13] = second compound 3.16 µM, first compound 0.1 µM
[14] = second compound 10 µM, first compound 0.0316 µM
[15] = second compound 10 µM, first compound 0.1 µM
[16] = second compound 0.1 µM, first compound 0.00949 µM
[17] = second compound 0.1 µM, first compound 0.03 µM
[18] = second compound 0.1 µM, first compound 0.0949 µM
[19] = second compound 0.1 µM, first compound 0.3 µM
[20] = second compound 0.316 µM, first compound 0.00949 µM
[21] = second compound 0.316 µM, first compound 0.03 µM
[22] = second compound 0.316 µM, first compound 0.0949 µM
[23] = second compound 0.316 µM, first compound 0.3 µM
[24] = second compound 1 µM, first compound 0.00949 µM
[25] = second compound 1 µM, first compound 0.03 µM
[26] = second compound 1 µM, first compound 0.0949 µM
[27] = second compound 1 µM, first compound 0.3 µM
[28] = second compound 3.16 µM, first compound 0.00949 µM
[29] = second compound 3.16 µM, first compound 0.03 µM
[30] = second compound 3.16 µM, first compound 0.0949 µM
[31] = second compound 3.16 µM, first compound 0.3 µM
[32] = second compound 10 µM, first compound 0.00949 µM
[33] = second compound 10 µM, first compound 0.03 µM
[34] = second compound 10 µM, first compound 0.0949 µM
[35] = second compound 10 µM, first compound 0.3 µM
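Note: exposure lasted 7 days after dosing on day 3 of spheroid growth.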

SMILES: CC[C@@]1(O)C(=O)OCc2c1cc1n(c2=O)Cc2cc3c(CN(C)C)c(O)ccc3nc2-1 + CC(CO)NC(=O)c1cc(-c2ccc(Cl)cc2)nn(-c2cnn(C)c2)c1=O
IC50 [1]: > 100 nM | IC50 [2]: > 100 nM | IC50 [3]: > 100 nM | IC50 [4]: > 100 nM | IC50 [5]: > 100 nM | viability, T/C (second compound 0.1 µM, first compound 0.000316 µM): 66.5% | viability, T/C (second compound 0.1 µM, first compound 0.001 µM): 93.5% | viability, T/C (second compound 0.1 µM, first compound 0.00316 µM): 102% | viability, T/C (second compound 0.1 µM, first compound 0.01 µM): 52.4% | viability, T/C [6]: 82.2% | viability, T/C [7]: 78.4% | viability, T/C (second compound 0.316 µM, first compound 0.000316 µM): 87.9% | viability, T/C (second compound 0.316 µM, first compound 0.001 µM): 100% | viability, T/C (second compound 0.316 µM, first compound 0.00316 µM): 103% | viability, T/C (second compound 0.316 µM, first compound 0.01 µM): 104% | viability, T/C [8]: 117% | viability, T/C [9]: 118% | viability, T/C (second compound 1 µM, first compound 0.000316 µM): 81.3% | viability, T/C (second compound 1 µM, first compound 0.001 µM): 78% | viability, T/C (second compound 1 µM, first compound 0.00316 µM): 107% | viability, T/C (second compound 1 µM, first compound 0.01 µM): 58.3% | viability, T/C [10]: 62% | viability, T/C [11]: 97% | viability, T/C (second compound 3.16 µM, first compound 0.000316 µM): 73.7% | viability, T/C (second compound 3.16 µM, first compound 0.001 µM): 104% | viability, T/C (second compound 3.16 µM, first compound 0.00316 µM): 63.6% | viability, T/C (second compound 3.16 µM, first compound 0.01 µM): 81.9% | viability, T/C [12]: 95.5% | viability, T/C [13]: 70.5% | viability, T/C (second compound 10 µM, first compound 0.000316 µM): 88.1% | viability, T/C (second compound 10 µM, first compound 0.001 µM): 95% | viability, T/C (second compound 10 µM, first compound 0.00316 µM): 80.5% | viability, T/C (second compound 10 µM, first compound 0.01 µM): 66.4% | viability, T/C [14]: 113% | viability, T/C [15]: 112%

SMILES: Nc1ncn(C2CC(O)C(CO)S2)c(=O)n1 (stereo not given) + Cc1cncc(-c2nc(NCCc3c[nH]c4ccccc34)c3ncn(C(C)C)c3n2)c1
IC50 [1]: > 300 nM | IC50 [2]: > 300 nM | IC50 [3]: > 300 nM | IC50 [4]: > 300 nM | IC50 [5]: > 300 nM | viability, T/C (second compound 0.1 µM, first compound 0.000949 µM): 93.3% | viability, T/C (second compound 0.1 µM, first compound 0.003 µM): 88.9% | viability, T/C [16]: 94.6% | viability, T/C [17]: 89.9% | viability, T/C [18]: 87.3% | viability, T/C [19]: 81.9% | viability, T/C (second compound 0.316 µM, first compound 0.000949 µM): 95% | viability, T/C (second compound 0.316 µM, first compound 0.003 µM): 104% | viability, T/C [20]: 103% | viability, T/C [21]: 90.7% | viability, T/C [22]: 91.7% | viability, T/C [23]: 81.6% | viability, T/C (second compound 1 µM, first compound 0.000949 µM): 105% | viability, T/C (second compound 1 µM, first compound 0.003 µM): 119% | viability, T/C [24]: 106% | viability, T/C [25]: 107% | viability, T/C [26]: 92.4% | viability, T/C [27]: 94.8% | viability, T/C (second compound 3.16 µM, first compound 0.000949 µM): 82.8% | viability, T/C (second compound 3.16 µM, first compound 0.003 µM): 82.6% | viability, T/C [28]: 82.4% | viability, T/C [29]: 88.2% | viability, T/C [30]: 76.7% | viability, T/C [31]: 83.1% | viability, T/C (second compound 10 µM, first compound 0.000949 µM): 54.5% | viability, T/C (second compound 10 µM, first compound 0.003 µM): 62.4% | viability, T/C [32]: 59% | viability, T/C [33]: 57.3% | viability, T/C [34]: 46.4% | viability, T/C [35]: 61.5%

SMILES: CC(CO)NC(=O)c1cc(-c2ccc(Cl)cc2)nn(-c2cnn(C)c2)c1=O (stereo not given)
IC50 (compound alone, run of 05/31/2022): > 10000 nM

SMILES: Nc1ncn(C2CC(O)C(CO)S2)c(=O)n1 (stereo not given)
viability, T/C (compound 0.000949 µM): 101% and 103% and 61.3% | viability, T/C (compound 0.003 µM): 114% and 103% and 79.2% | viability, T/C (compound 0.00949 µM): 93.2% and 103% and 71.2% | viability, T/C (compound 0.03 µM): 97.5% and 101% and 64% | viability, T/C (compound 0.0949 µM): 88.2% and 99% and 72.8% | viability, T/C (compound 0.3 µM): 78.9% and 82.5% and 87.1% | IC50 (curve of compound): > 300 nM

More lines, main results first:

IC50 [1]: 2500 nM | IC50 [2]: 2350 nM | IC50 [3]: 2480 nM | IC50 [4]: 2480 nM | IC50 [5]: 2690 nM
SMILES: NS(=O)(=O)OCC1CC(n2ccc3c(NC4CCc5ccccc54)ncnc32)CC1O (stereo not given) + Cc1ccccc1N=Nc1ccc(NC(=O)c2ccnn2C)c(C)c1
viability, T/C [6]: 143% | viability, T/C [7]: 184% | viability, T/C (second compound 0.1 µM, first compound 0.316 µM): 253% | viability, T/C (second compound 0.1 µM, first compound 1 µM): 137% | viability, T/C (second compound 0.1 µM, first compound 3.16 µM): 37.4% | viability, T/C (second compound 0.1 µM, first compound 10 µM): 18.3% | viability, T/C [8]: 131% | viability, T/C [9]: 173% | viability, T/C (second compound 0.316 µM, first compound 0.316 µM): 240% | viability, T/C (second compound 0.316 µM, first compound 1 µM): 119% | viability, T/C (second compound 0.316 µM, first compound 3.16 µM): 30.9% | viability, T/C (second compound 0.316 µM, first compound 10 µM): 20.6% | viability, T/C [10]: 127% | viability, T/C [11]: 156% | viability, T/C (second compound 1 µM, first compound 0.316 µM): 256% | viability, T/C (second compound 1 µM, first compound 1 µM): 125% | viability, T/C (second compound 1 µM, first compound 3.16 µM): 39.3% | viability, T/C (second compound 1 µM, first compound 10 µM): 20.9% | viability, T/C [12]: 121% | viability, T/C [13]: 146% | viability, T/C (second compound 3.16 µM, first compound 0.316 µM): 233% | viability, T/C (second compound 3.16 µM, first compound 1 µM): 128% | viability, T/C (second compound 3.16 µM, first compound 3.16 µM): 37.4% | viability, T/C (second compound 3.16 µM, first compound 10 µM): 18.5% | viability, T/C [14]: 118% | viability, T/C [15]: 179% | viability, T/C (second compound 10 µM, first compound 0.316 µM): 210% | viability, T/C (second compound 10 µM, first compound 1 µM): 125% | viability, T/C (second compound 10 µM, first compound 3.16 µM): 43.6% | viability, T/C (second compound 10 µM, first compound 10 µM): 17.4%

IC50 [1]: 900 nM | IC50 [2]: 1380 nM | IC50 [3]: 1760 nM | IC50 [4]: 1530 nM | IC50 [5]: < 9.49 nM
SMILES: O=C(C=Cn1cnc(-c2cc(C(F)(F)F)cc(C(F)(F)F)c2)n1)NNc1cnccn1 + Cc1cncc(-c2nc(NCCc3c[nH]c4ccccc34)c3ncn(C(C)C)c3n2)c1
viability, T/C [16]: 81.5% | viability, T/C [17]: 74.9% | viability, T/C [18]: 63.7% | viability, T/C [19]: 58.1% | viability, T/C (second compound 0.1 µM, first compound 0.949 µM): 50.1% | viability, T/C (second compound 0.1 µM, first compound 3 µM): 42.5% | viability, T/C [20]: 88.3% | viability, T/C [21]: 78.4% | viability, T/C [22]: 72.3% | viability, T/C [23]: 58.1% | viability, T/C (second compound 0.316 µM, first compound 0.949 µM): 57.1% | viability, T/C (second compound 0.316 µM, first compound 3 µM): 42.4% | viability, T/C [24]: 83% | viability, T/C [25]: 79.1% | viability, T/C [26]: 69.5% | viability, T/C [27]: 61.4% | viability, T/C (second compound 1 µM, first compound 0.949 µM): 62% | viability, T/C (second compound 1 µM, first compound 3 µM): 42.7% | viability, T/C [28]: 93.6% | viability, T/C [29]: 88.2% | viability, T/C [30]: 80% | viability, T/C [31]: 67.5% | viability, T/C (second compound 3.16 µM, first compound 0.949 µM): 52.9% | viability, T/C (second compound 3.16 µM, first compound 3 µM): 45.2% | viability, T/C [32]: 49.5% | viability, T/C [33]: 40.5% | viability, T/C [34]: 32.4% | viability, T/C [35]: 29.7% | viability, T/C (second compound 10 µM, first compound 0.949 µM): 42.5% | viability, T/C (second compound 10 µM, first compound 3 µM): 44.2%

IC50 (curve of compound): 3720 nM and 3860 nM and > 10000 nM
SMILES: COc1ccc([C@@H](O)c2cc(-c3ncnc4cc(N5CCOCC5)ccc34)c(F)cc2Cl)nn1
viability, T/C (compound 0.0316 µM): 110% and 102% and 97.7% | viability, T/C (compound 0.1 µM): 110% and 106% and 123% | viability, T/C (compound 0.316 µM): 86.4% and 91.7% and 70% | viability, T/C (compound 1 µM): 69.8% and 77.5% and 73.8% | viability, T/C (compound 3.16 µM): 54.8% and 51.5% and 64.2% | viability, T/C (compound 10 µM): 36.5% and 39.1% and 48.6%
